Assays:
[1] = system: U937 human histiocytic lymphoma cells; conditions: cited from earlier work
[2] = system: U937 human histiocytic lymphoma cells; conditions: cited from earlier work; remark: listed apart in the source
Toledo cells = assay: Toledo cell growth assay; type: cell-based
[3] = system: TNFα secretion from U937 cells; assay: TNFα secretion from U937 cells; type: cell-based, human; conditions: treatment for 60 hours

Row | SMILES | behavior in U937 promyelocytic leukemia cells [1] | effect on attachment of U937 cells [2] | growth inhibition of Toledo cells (Toledo cells) | TNFα secretion [3] | effect on proliferation of U937 cells [1]
1 | COC(=O)/C=C1\C[C@H]2C[C@]3(O)O[C@H](C[C@@H](O)CC(=O)O[C@@H](C)[C@H](O)C[C@@H]4C[C@@H]5CC(=O)O[C@]5(O4)C(=O)C(C)(C)/C=C/[C@@H](C1)O2)C[C@H](OC(=O)C(C)(C)C)C3(C)C [Neristatin 1] | bryostatin 1-like behavior |  |  |  | 
2 | CCCCCCCCCCCCCC(=O)O[C@@H]1[C@@H](C)[C@@]2(O)[C@@H](C=C(CO)C[C@]3(O)C(=O)C(C)=C[C@@H]23)[C@@H]2C(C)(C)[C@]12OC(C)=O [PMA, phorbol 12-myristate 13-acetate] |  | promotes attachment | induce antiproliferative responses | induces secretion in a dose-dependent manner | inhibits the proliferation
3 | CCC/C=C/C=C/C(=O)O[C@H]1/C(=C/C(=O)OC)C[C@H]2C[C@H]([C@@H](C)O)OC(=O)C[C@H](O)C[C@@H]3C[C@H](OC(C)=O)C(C)(C)[C@](O)(C[C@@H]4C/C(=C/C(=O)OC)C[C@H](/C=C/C(C)(C)[C@]1(O)O2)O4)O3 [bryostatin 1] |  | little response | induce antiproliferative responses | little effect | little response
